Reference: the supplement of paper PMC5908809

How the values were obtained:
[1] = tested on: normal NK cells expanded with K562-aAPC; assay: percent inhibition of viability; higher = more inhibition; conditions: 72 h, IL-2 2.5 ng/mL
Experimental: (§1)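 Drug sensitivity and resistance testing on K562-aAPC-expanded normal NK cells: 5 concentrations (10-fold steps over a 10,000-fold range), 72 h at 37 °C, viability by CellTiter-Glo normalised to DMSO and benzethonium chloride controls; DSS from the fitted curve.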

DERL-7 (IL-2 2.5 ng/mL) [2] = assay: as above; conditions: 72 h
IMC-1 (IL-2 20 ng/mL) [3] = assay: as above; conditions: 72 h
KAI3 (IL-2 2.5 ng/mL) [4] = assay: as above; conditions: 72 h
KHYG-1 (IL-2 2.5 ng/mL) [5] = assay: as above; conditions: 72 h
NK-92 (IL-2 2.5 ng/mL) [6] = assay: as above; conditions: 72 h
NK-YS (IL-2 2.5 ng/mL) [7] = assay: as above; conditions: 72 h
NKL (IL-2 2.5 ng/mL) [8] = assay: as above; conditions: 72 h
SNK-6 (IL-2 2.5 ng/mL) [9] = assay: as above; conditions: 72 h
YT (IL-2 2.5 ng/mL) [10] = assay: as above; conditions: 72 h
[11] = tested on: normal primary NK cells, pool 1 (3 donors) (IL-2 2.5 ng/mL); assay: as above; conditions: 72 h
[12] = tested on: normal primary NK cells, pool 1 (3 donors), resting (IL-2 0 ng/mL); assay: as above; conditions: 72 h
[13] = tested on: normal primary NK cells, pool 2 (3 donors) (IL-2 2.5 ng/mL); assay: as above; conditions: 72 h
[14] = tested on: normal primary NK cells, pool 3 (3 donors) (IL-2 2.5 ng/mL); assay: as above; conditions: 72 h
[15] = tested on: normal NK cells expanded with K562-aAPC; assay: drug sensitivity score (DSS) (DSS units); higher = more sensitive; extreme values may be limits of the assay; conditions: 72 h; IL-2 2.5 ng/mL
Experimental: as §1

DERL-7 (IL-2 2.5 ng/mL) [16] = assay: as above; conditions: 72 h
IMC-1 (IL-2 20 ng/mL) [17] = assay: as above; conditions: 72 h
KAI3 (IL-2 2.5 ng/mL) [18] = assay: as above; conditions: 72 h
KHYG-1 (IL-2 2.5 ng/mL) [19] = assay: as above; conditions: 72 h
NK-92 (IL-2 2.5 ng/mL) [20] = assay: as above; conditions: 72 h
NK-YS (IL-2 2.5 ng/mL) [21] = assay: as above; conditions: 72 h
NKL (IL-2 2.5 ng/mL) [22] = assay: as above; conditions: 72 h
SNK-6 (IL-2 2.5 ng/mL) [23] = assay: as above; conditions: 72 h
YT (IL-2 2.5 ng/mL) [24] = assay: as above; conditions: 72 h
[25] = tested on: normal primary NK cells, pool 1 (3 donors) (IL-2 2.5 ng/mL); assay: as above; conditions: 72 h
[26] = tested on: normal primary NK cells, pool 1 (3 donors), resting (IL-2 0 ng/mL); assay: as above; conditions: 72 h
[27] = tested on: normal primary NK cells, pool 2 (3 donors) (IL-2 2.5 ng/mL); assay: as above; conditions: 72 h
[28] = tested on: normal primary NK cells, pool 3 (3 donors) (IL-2 2.5 ng/mL); assay: as above; conditions: 72 h

O=C(c1ccc(C(=O)N2CCC(N3CCCC3)CC2)c(Nc2ccccc2)c1)N1CCC(N2CCCC2)CC1 [UNC1215] (max concentration tested 30000 nM)
percent inhibition of viability [%]
Conditions	3 nM	30 nM	300 nM	3000 nM	30000 nM
DERL-7 (IL-2 2.5 ng/mL) [2]	-1.53	0.01	3.61	7.89	3.14
IMC-1 (IL-2 20 ng/mL) [3]	-3.72	-5.44	3.3	4.34	14.3
KAI3 (IL-2 2.5 ng/mL) [4]	1.7	4.58	5.63	3.2	16.4
KHYG-1 (IL-2 2.5 ng/mL) [5]	-1.52	-1.25	-0.64	3.44	11.4
NK-92 (IL-2 2.5 ng/mL) [6]	-15.1	-6.53	5.43	7.05	13.6
NK-YS (IL-2 2.5 ng/mL) [7]	-2.93	-6.82	1.29	4.26	12.9
NKL (IL-2 2.5 ng/mL) [8]	-7.8	-11.1	-0.61	-5.87	10.9
SNK-6 (IL-2 2.5 ng/mL) [9]	-4.87	-19.4	0.88	-4.07	-10.5
YT (IL-2 2.5 ng/mL) [10]	-2.24	-2.54	-0.78	1.55	4.57
[1]	3.82	0.21	4.98	5.27	6.03
[11]	-4.87	7.23	-8	1.14	-2.52
[12]	-4.97	4.4	-12.3	-0.15	-14.2
[13]	-8.79	-4.27	-3.06	7.44	11.8
[14]	-6.54	-6.05	-0.93	8.8	12.9

Conditions	drug sensitivity score
DERL-7 (IL-2 2.5 ng/mL) [16]	0
IMC-1 (IL-2 20 ng/mL) [17]	0.31
KAI3 (IL-2 2.5 ng/mL) [18]	0.59
KHYG-1 (IL-2 2.5 ng/mL) [19]	0.12
NK-92 (IL-2 2.5 ng/mL) [20]	0.29
NK-YS (IL-2 2.5 ng/mL) [21]	0.25
NKL (IL-2 2.5 ng/mL) [22]	0
SNK-6 (IL-2 2.5 ng/mL) [23]	0
YT (IL-2 2.5 ng/mL) [24]	0
[15]	0
[25]	0
[26]	0
[27]	0.28
[28]	0.52

CS(=O)(=O)c1ccc(-c2cnc(N)c(C(=O)Nc3ccccc3)n2)cc1 [VE-821] (max concentration tested 10000 nM)
percent inhibition of viability [%]
Conditions	1 nM	10 nM	100 nM	1000 nM	10000 nM
DERL-7 (IL-2 2.5 ng/mL) [2]	4.33	7.29	1.29	12.9	50.9
IMC-1 (IL-2 20 ng/mL) [3]	-4.03	0.79	-1.04	4.32	67.9
KAI3 (IL-2 2.5 ng/mL) [4]	-6.99	-6.14	7.79	43.5	52
KHYG-1 (IL-2 2.5 ng/mL) [5]	-3.09	-0.84	3.42	23.8	95.3
NK-92 (IL-2 2.5 ng/mL) [6]	-13.2	-3.86	2.78	36	48
NK-YS (IL-2 2.5 ng/mL) [7]	-5.61	-3.96	4.64	25.1	40.2
NKL (IL-2 2.5 ng/mL) [8]	-16.3	-14.8	-15.7	-0.56	24.9
SNK-6 (IL-2 2.5 ng/mL) [9]	3.87	-9.33	-1.01	33.3	52.1
YT (IL-2 2.5 ng/mL) [10]	-4.34	-6.49	-4.51	4.75	9.28
[1]	-5.95	-7.38	-2.06	18.1	32.8
[11]	-1.78	22.5	3.18	5.45	6.99
[12]	9.92	20.7	22.8	23	21.5
[13]	-7.66	8.41	7.62	7.68	15.6
[14]	-3.66	1.35	5.12	0.23	15.6

Conditions	drug sensitivity score
DERL-7 (IL-2 2.5 ng/mL) [16]	4.71
IMC-1 (IL-2 20 ng/mL) [17]	4.37
KAI3 (IL-2 2.5 ng/mL) [18]	8.88
KHYG-1 (IL-2 2.5 ng/mL) [19]	8.93
NK-92 (IL-2 2.5 ng/mL) [20]	7.01
NK-YS (IL-2 2.5 ng/mL) [21]	4.96
NKL (IL-2 2.5 ng/mL) [22]	0.89
SNK-6 (IL-2 2.5 ng/mL) [23]	6.77
YT (IL-2 2.5 ng/mL) [24]	0
[15]	3.68
[25]	0
[26]	0
[27]	0.62
[28]	0.29

CCCCC(=O)OCC(=O)[C@]1(O)Cc2c(O)c3c(c(O)c2[C@@H](O[C@H]2C[C@H](NC(=O)C(F)(F)F)[C@H](O)[C@H](C)O2)C1)C(=O)c1c(OC)cccc1C3=O [Valrubicin] (max concentration tested 5000 nM)
percent inhibition of viability [%]
Conditions	0.5 nM	5 nM	50 nM	500 nM	5000 nM
DERL-7 (IL-2 2.5 ng/mL) [2]	1.97	-4.8	35.6	99.1	101
IMC-1 (IL-2 20 ng/mL) [3]	-8.69	1.1	16.2	99.5	101
KAI3 (IL-2 2.5 ng/mL) [4]	-21.3	-1.05	42.1	62.3	85.2
KHYG-1 (IL-2 2.5 ng/mL) [5]	-6.36	1.91	9.03	89.6	109
NK-92 (IL-2 2.5 ng/mL) [6]	-14.1	-10.7	10	89.7	105
NK-YS (IL-2 2.5 ng/mL) [7]	-5.71	4.57	40.3	86.6	101
NKL (IL-2 2.5 ng/mL) [8]	-11.4	33.3	101	105	109
SNK-6 (IL-2 2.5 ng/mL) [9]	10.3	28.7	23	89.2	86
YT (IL-2 2.5 ng/mL) [10]	-0.05	4.95	0.64	87.1	109
[1]	-4.09	-1.21	4.69	55.8	101
[11]	2.9	-5.69	4.41	76	97.4
[12]	-3.66	-27.1	-0.41	88.2	92.3
[13]	-13.8	-9.19	12.8	67.3	95.2
[14]	-11.9	-6.83	15.7	53.2	98.4

Conditions	drug sensitivity score
DERL-7 (IL-2 2.5 ng/mL) [16]	22.9
IMC-1 (IL-2 20 ng/mL) [17]	20.7
KAI3 (IL-2 2.5 ng/mL) [18]	17.4
KHYG-1 (IL-2 2.5 ng/mL) [19]	17.5
NK-92 (IL-2 2.5 ng/mL) [20]	17.7
NK-YS (IL-2 2.5 ng/mL) [21]	21
NKL (IL-2 2.5 ng/mL) [22]	35.2
SNK-6 (IL-2 2.5 ng/mL) [23]	18.6
YT (IL-2 2.5 ng/mL) [24]	15.8
[15]	12.2
[25]	14.7
[26]	16.1
[27]	14.2
[28]	12.3
